“Also recorded” adds a separate entry of the source.
Columns and labels:
LNCaP WT cells = experiment: xCELLigence real-time proliferation of WT LNCaP cells; format: cell-based; conditions: for proliferation of WT LNCaPs: PDE4 activator, 1 and 10 μM
Method: (§1) xCELLigence Real-Time Cell Analysis (RTCA)
(§2) Real-time cell growth was analysed using the xCELLigence RTCA system (Agilent), which measures real-time cell adhesion across gold microelectrode biosensors on 96 well electronic plates (E-plates) within a 37 °C incubator with 5% CO2. Cellular adhesion influences electrical impedance which is converted into the cell index (CI) via RTCA software. Initial background measurements were recorded with 100 μL RPMI 1640 medium, followed by addition of 100 μL LNCaP cell suspension (10,000 cells/wells) for measurement of CI over time. Approximately 24 h after seeding, cells were treated with specified concentrations of drugs. Negative controls containing either 0.1% DMSO or untreated cells were also included. CI was transformed to normalised CI via the RTCA software to timepoint of treatment.

[1] = test system: PDE4D7-knockdown LNCaP P1 cells; experiment: xCELLigence real-time proliferation of PDE4D7-knockdown P1 LNCaP cells; format: cell-based; conditions: for resistance to olaparib, PDE4D7-reduced cells: olaparib 10 and 30 μM
Text: Stable shRNA-mediated lentiviral transduced LNCaP cell lines were generated by AMSBIO (Table 1). Briefly, shRNA-PDE4D7 was cloned into a lentivector and delivered into LNCaP clone FGC cells (ATCC) via lentivirus (MOI=10). Cells were maintained in puromycin-supplemented medium prior to selection of stably transduced cells. A stable shRNA-PDE4D7 LNCaP cell line was then re-transduced with lentivirus delivering PDE4D7 to generate a re-introduced cell line. Scrambled-shRNA was used as a control. All cells were cultured in RPMI 1640 medium (Gibco D), supplemented with 10% (v/v) foetal bovine serum, 1% (v/v) L-Glutamine and 1% (v/v) penicillin/streptomycin, and stored within a 37 °C incubator with 5% CO2.
as §1, §2

P1-PDE4D7+/+ LNCaP cells = experiment: xCELLigence real-time proliferation of P1 LNCaP cells with PDE4D7 re-expression; format: cell-based
mCRPC = conditions: Lloyd et al., 2020; cited from earlier work
[2] = test system: PARP cleavage in LNCaP WT; experiment: PARP/cleaved PARP western blot in WT LNCaP; format: cell-based; conditions: N=3
Method: (§3) FIG. 12: Ratio of PARP and cleaved PARP (PARPc) by western blot analysis in LNCaP WT and LNCaP PDE4D7 knockdown cell line P1 upon incubation with 0.1% DMSO (control), 10 μM Olaparib, and 10 nM docetaxel including quantitation of western blot bands normalised to DMSO.
(§4) Cells were lysed in 3T3 lysis buffer (50 mM NaCl, 50 mM NaF, 30 mM sodium pyrophosphate, 25 mM HEPES, 2.5 mM EDTA, 10% (v/v) glycerol, 1% (v/v) Triton X-100; pH 7.5) supplemented with cOmplete™ EDTA-free protease inhibitor cocktail (Sigma-Aldrich). Lysed cells were rotated end-over-end for 30 minutes at 4 °C, then centrifuged for 10 minutes at 13,000 RPM at […]. Supernatants were collected and protein concentration determined via Bradford assay. Equal concentrations of protein samples were separated via SDS-polyacrylamide gel electrophoresis (SDS-PAGE) and transferred onto nitrocellulose membranes for western blot. Membranes were blocked in 5% (w/v) milk powder in TBS-T for 1 h prior to primary and secondary antibody incubations. […]

[3] = test system: PARP cleavage in LNCaP P1; experiment: PARP/cleaved PARP western blot in PDE4D7-knockdown P1 LNCaP; format: cell-based; conditions: N=3
Method: as §3, §4

advanced PCa = conditions: in combination with docetaxel; cited from earlier work
LNCaP cells = conditions: Feiersinger et al., 2018; cited from earlier work
[4] = test system: cAMP at membrane of WT LNCaPs; experiment: cAMP FRET (CUTie) at plasma membrane of WT LNCaP; format: cell-based; conditions: rolipram
Method: (§5) FIG. 18: Influence of PDE4D7 expression on cAMP dynamics within LNCaPs. Analysis of FRET ratio (YFP/CFP) at cytosol of WT (A) or P1 (C) LNCaPs, or at membrane of WT (B) or P1 (D) LNCaPs upon treatment with rolipram or combined treatment of forskolin+IBMX. (E & F) Real-time growth analysis of WT (G) and P1 (H) cells upon treatment with PDE4 activator MR-L2 (1-10 μM). Slope analysis from 0-48 post-treatment. Mean+/−SEM, N=3, **p<0.01, ***p<0.001.
(§6) Genetically encoded cAMP-fluorescent resonance energy transfer (FRET) probes were used to investigate CAMP dynamics at subcellular regions in WT and P1 LNCaPs. […] CUTie probes targeting the plasma-membrane (AKAP-79) or cytosol (CYTO-pDUAL) were obtained from the Zaccolo lab (REF). […] Given that PDE4D7 is known to be substantially membrane located [FIG. 1C]

[5] = test system: cAMP at membrane of P1 LNCaPs; experiment: cAMP FRET (CUTie) at plasma membrane of P1 LNCaP; format: cell-based; conditions: rolipram
Method: as §5, §6

[6] = test system: cAMP at cytosol of WT LNCaPs; experiment: cAMP FRET (CUTie) in cytosol of WT LNCaP; format: cell-based; conditions: rolipram
Method: as §5, §6

[7] = test system: cAMP at cytosol of P1 LNCaPs; experiment: cAMP FRET (CUTie) in cytosol of P1 LNCaP; format: cell-based; conditions: rolipram
Method: as §5, §6

Structure (SMILES): CCc1nc(-c2ccc(Cl)c(F)c2)nn1CC(=O)NCc1cc(Cl)cc(Cl)c1 [ML-R2]
- proliferation of WT LNCaPs (LNCaP WT cells): no effect on proliferation in WT LNCaPs at either concentration
- proliferation of WT LNCaPs (LNCaP WT cells; listed as MLR2): no effect on growth of WT LNCaPs
- proliferation of WT LNCaPs (LNCaP WT cells; listed as MR-L2): no effect on proliferation in WT LNCaPs
- growth of P1 cells ([1]; PDE4 activator, 1-10 μM): inhibition of cell growth in P1 cells
- growth of P1 cells ([1]; PDE4 activator, 1-10 μM, listed as MLR2): attenuates growth of P1 LNCaPs
- growth of P1 cells ([1]; PDE4 activator, 1-10 μM, listed as MR-L2): inhibition of growth in P1 cells
- MLR2 sensitivity after PDE4D7 reintroduction to P1 (P1-PDE4D7+/+ LNCaP cells; PDE4 activator, 10 μM): rescues phenotype of WT LNCaPs on MLR2 sensitivity

Structure (SMILES): C[C@@H]1COCCN1c1cc(C2([S@](C)(=N)=O)CC2)nc(-c2cc[nH]c3nccc2-3)n1 [ceralasertib, Ceralasertib]
- growth inhibition, WT (LNCaP WT cells; ceralasertib 10-30 μM): most significant growth inhibition
- growth inhibition independent of PDE4D7 expression, WT (LNCaP WT cells; summary statement, WT vs P1): reduce tumor growth independent of PDE4D7 expression levels; also recorded: inhibit LNCaP cell growth irrespective of PDE4D7 expression status
- sensitivity from growth curves, PDE4D7-knockdown (compared with WT) ([1]; ceralasertib 0-30 μM): highly susceptible to ATR-inhibition via ceralasertib
- growth inhibition, P1 ([1]; ceralasertib 10-30 μM): most significant growth inhibition
- sensitivity of PDE4D7-knockdown cells ([1]; ceralasertib 10-30 μM): extremely sensitive to ATR inhibition via ceralasertib
- growth inhibition independent of PDE4D7 expression, P1 ([1]; summary statement, WT vs P1): reduce tumor growth independent of PDE4D7 expression levels; also recorded: inhibit LNCaP cell growth irrespective of PDE4D7 expression status
- synergistic effects in combination with olaparib (mCRPC): enhance synergistic effects in combination with olaparib in mCRPC; also recorded: enhance synergistic effects in combination with olaparib in metastatic CRPC

Structure (SMILES): CC(=O)O[C@@]12CO[C@@H]1C[C@H](O)[C@@]1(C)C(=O)[C@H](O)C3=C(C)[C@@H](OC(=O)[C@H](O)[C@@H](NC(=O)OC(C)(C)C)c4ccccc4)C[C@@](O)([C@@H](OC(=O)c4ccccc4)[C@H]21)C3(C)C [docetaxel, Docetaxel]
- growth of WT LNCaPs (LNCaP WT cells; docetaxel 10 μM): effective in WT
- growth of WT LNCaPs vs DMSO (LNCaP WT cells; docetaxel, all concentrations (5-25 μM), slope 0-48 h): significantly reduced growth
- growth of P1 cells ([1]; docetaxel 10 μM): no effect
- growth of PDE4D7-knockdown LNCaPs vs DMSO ([1]; docetaxel, all concentrations (5-25 μM) except 10 μM, slope 0-48 h): significantly reduced growth
- sensitivity to docetaxel after PDE4D7 re-introduction, vs P1 (P1-PDE4D7+/+ LNCaP cells; docetaxel 10 μM): more sensitive to docetaxel treatment than P1
- PARP cleavage, WT LNCaP ([2]; docetaxel 10 nM): increased PARP cleavage
- cleaved PARP ratio, P1 LNCaP ([3]; docetaxel 10 nM): No increase in cleaved PARP ratio

Structure (SMILES): COC(=O)Nc1nc2ccc(C(=O)c3ccccc3)cc2[nH]1 [mebendazole]
- WT cell growth (LNCaP WT cells; mebendazole 1-10 μM): significant downregulation of cell growth in a dose-dependent manner
- effect on P1 cells ([1]; mebendazole 1-10 μM, compared with WT): far more substantial and more significant, with initiation of immediate cell death in the cells at both concentrations; also recorded: PDE4D7-knockdown confers sensitivity to mebendazole in comparison to WT LNCaPs
- potential in advanced PCa treatment (advanced PCa): showed potential in advanced PCa treatment in combination with docetaxel

Structure (SMILES): CC#C[C@]1(O)CC[C@H]2[C@@H]3CCC4=CC(=O)CCC4=C3[C@@H](c3ccc(N(C)C)cc3)C[C@@]21C [mifepristone]
- growth of WT LNCaPs (LNCaP WT cells; mifepristone 30 μM): successfully inhibited growth
- WT cell proliferation vs DMSO (LNCaP WT cells; mifepristone 0.3-10 μM): neither WT or P1 cell proliferation were reduced compared to DMSO
- proliferation of P1 LNCaPs ([1]; mifepristone 30 μM): significantly enhanced proliferation
- growth curve over time, P1 LNCaPs ([1]; mifepristone 30 μM, compared to lower concentrations): initial growth was inhibited compared to lower concentrations, however this effect eventually wore off
- P1 cell proliferation vs DMSO ([1]; mifepristone 0.3-10 μM): neither WT or P1 cell proliferation were reduced compared to DMSO

Structure (SMILES): O=C(c1cc(Cc2n[nH]c(=O)c3ccccc23)ccc1F)N1CCN(C(=O)C2CC2)CC1 [olaparib, Olaparib]
- LNCaP WT proliferation (LNCaP WT cells; olaparib 0-30 μM): decreased in a dose-dependent manner
- growth rate (slope analysis), WT (LNCaP WT cells; olaparib 3, 10 and 30 μM, slope 0-30 h): significant reductions in WT growth
- effect on PDE4D7-deficient LNCaP proliferation ([1]; olaparib 0-30 μM): minimal
- growth rate (slope analysis), P1 ([1]; olaparib 0.3 and 1 μM, slope 0-30 h): unexpected reduction in slope
- resistance to olaparib, PDE4D7-reduced cells [1]: resistant to olaparib; also recorded: resistance
- resistance to olaparib, PDE4D7-reduced cells ([1]; listed as Olaparib): resistance
- resistance to PARP inhibition via olaparib upon PDE4D7 knockdown ([1]; overall conclusion): resistant to PARP inhibition via olaparib; also recorded: confers resistance to PARP-inhibition via olaparib; also recorded: enhances resistance to olaparib
- sensitivity to olaparib after PDE4D7 re-introduction (P1-PDE4D7+/+ LNCaP cells; olaparib 10 μM): more sensitive to olaparib treatment; also recorded: re-sensitised
- sensitivity to olaparib after PDE4D7 re-introduction (P1-PDE4D7+/+ LNCaP cells; olaparib 10 μM, listed as Olaparib): enhances sensitivity to Olaparib
- growth vs olaparib-treated P1 and DMSO-treated P1-PDE4D7+/+ cells (P1-PDE4D7+/+ LNCaP cells; olaparib 10 μM, slope 0-48 h): statistically significant downregulation in growth
- PARP cleavage, WT LNCaP ([2]; olaparib 10 μM): increased PARP cleavage
- cleaved PARP ratio, P1 LNCaP ([3]; olaparib 10 μM): No increase in cleaved PARP ratio
- effect against LNCaP cells (LNCaP cells): effective against LNCaP cells

Structure (SMILES): COc1ccc(C2CNC(=O)C2)cc1OC1CCCC1 (stereo not shown) [rolipram]
- FRET ratio / cAMP, membrane, WT [4]: downregulation of FRET ratio in the membrane compartment of WT LNCaPs, indicating an increase in cAMP concentration
- FRET ratio, membrane, P1 [5]: no obvious difference in FRET ratio
- FRET ratio, cytosol, WT [6]: no observable difference
- FRET ratio, cytosol, P1 [7]: no observable difference

From patent publication US20260345624A1, “TREATMENT OF PROSTATE CANCER BY PROMOTING PDE4D7” (KONINKLIJKE PHILIPS N.V., priority 2022, published 2026)
